Results on 3 compounds are retold here after US20180125921A1, “USE OF QBP1 PEPTIDE FOR THE INHIBITION OF MEMORY CONSOLIDATION” (CONSEJO SUPERIOR DE INVESTIGACIONES CIENTÍFICAS, priority 2015, published 2018).

Data set [1] relates to Orb2A PLD. The data set is described as follows: CR binding assay of Orb2A PLD amyloid. To be noted: protein 10 μM, peptide 50 μM, aged 7 days at 37° C.
Protocol: (§1) Buffers, time and storage conditions, and protein/peptide concentrations used in the aforementioned techniques were as follows: • AFM-SMFS: Experiments were performed using 2-3 μM polyproteins in 10 mM Tris-HCl pH 7.5 at room temperature with proteins incubated at 4° C. between sessions and NTA-Ni2+ functionalized coverslips. For experiments in the presence of the peptides QBP1 and SCR, 20 μM of the peptide were used dissolved in DMSO, and the samples were incubated overnight with the peptide at 4° C. before the measurement. • CD: For far-UV CD spectra it was used a protein concentration of 2-5 μM in 5 mM NaH2PO4, with 0.02% NaN3, pH 6.0. […] The secondary structure content of each protein and its evolution during incubation were estimated by spectra deconvolution using the CDNN analysis program (Bohm, G., et al., Quantitative analysis of protein far UV circular dichroism spectra by neural networks, Protein Eng (1992) 5 (3): 191-5). For thermal stability measurements, the ellipticity changes induced by increasing the temperature (at a constant heating rate of 60° C./h) were measured at 222 nm in 5 mM NaH2PO4 pH 6.0 using a protein concentration of 20 μM. • Turbidimetry: Protein samples used were at 10 μM in PBS+0.02% NaN3, pH 7.0 for all the kinetic experiments. […]
The subject of data set [2] is Orb2A PLD. The data set is described as follows: AFM-SMFS conformational polymorphism of Orb2A PLD. The following applies: 20 μM peptide.
Protocol: Buffers, time and storage conditions, and protein/peptide concentrations used in the aforementioned techniques were as follows: • AFM-SMFS: Experiments were performed using 2-3 μM polyproteins in 10 mM Tris-HCl pH 7.5 at room temperature with proteins incubated at 4° C. between sessions and NTA-Ni2+ functionalized coverslips. For experiments in the presence of the peptides QBP1 and SCR, 20 μM of the peptide were used dissolved in DMSO, and the samples were incubated overnight with the peptide at 4° C. before the measurement. • CD: For far-UV CD spectra it was used a protein concentration of 2-5 μM in 5 mM NaH2PO4, with 0.02% NaN3, pH 6.0. The QBP1 or SCR (when used) was five fold molar excess relative to proteins (final concentrations 10 to 25 μM with the final concentration (v/v) of DMSO below 0.01%). After recording the first protein spectrum (hour 0), the protein was incubated at 37° C. without stirring and additional spectra were collected at the indicated times. The secondary structure content of each protein and its evolution during incubation were estimated by spectra deconvolution using the CDNN analysis program (Bohm, G., et al., Quantitative analysis of protein far UV circular dichroism spectra by neural networks, Protein Eng (1992) 5 (3): 191-5). For thermal stability measurements, the ellipticity changes induced by increasing the temperature (at a constant heating rate of 60° C./h) were measured at 222 nm in 5 mM NaH2PO4 pH 6.0 using a protein concentration of 20 μM. • Turbidimetry: Protein samples used were at 10 μM in PBS+0.02% NaN3, pH 7.0 for all the kinetic experiments. Samples were incubated at 37° C. without stirring. SCR and QBP1 peptides were used at 50 μM. • CR binding assay: Samples were aged for 7 days at 37° C. with 0.02% NaN3 and no stirring prior to performing the measurements. The protein samples (10 μM) were dialyzed in PBS pH 7.0 for the experiments. SCR and QBP1 peptides were used at 50 μM. • TEM imaging: Protein samples (10 μM) were dialyzed in PBS pH 7.0 for all the TEM measurements. Images were taken after 7 days of incubation at 37° C. in the presence of 0.02% NaN3 without stirring.
A further data set has as its system Drosophila melanogaster. The following applies: for short-term memory (courtship suppression immediately after training) / long-term memory (courtship suppression after 24 hours): Elav-Gal4 driven expression; for short-term memory (courtship suppression immediately after training): 5 min after training; for long-term memory (courtship suppression after 24 hours): 24 h after training; for effect on fly development / normal courtship behaviour: expression in the nervous system; for normal courtship behaviour: untrained flies.

Data set [3] has as its system Orb2A PLD. The data set is described as follows: Far-UV CD spectroscopy of Orb2A PLD over time. To be noted: peptide five fold molar excess, 37° C.
Protocol: as §1
Data set [4] concerns Orb2A PLD. Kind of data set: Turbidimetry of Orb2A PLD amyloidogenesis. The following applies: protein 10 μM, peptide 50 μM, 37° C., turbidity at 405 nm.
Protocol: as §1
The target of another data set is full-length Orb2A (Drosophila melanogaster, UniProt Q9VSR3). Kind of data set: Isothermal titration calorimetry (ITC) of peptide interaction with Orb2A. The following applies: 25° C., PBS pH 7.4, Orb2A injected into excess peptide; no quantitative analysis. A general note: ITC needs no label: the signal is the heat of the interaction.
Chain of full-length Orb2A (Q9VSR3 1-551 isoform Q9VSR3-2): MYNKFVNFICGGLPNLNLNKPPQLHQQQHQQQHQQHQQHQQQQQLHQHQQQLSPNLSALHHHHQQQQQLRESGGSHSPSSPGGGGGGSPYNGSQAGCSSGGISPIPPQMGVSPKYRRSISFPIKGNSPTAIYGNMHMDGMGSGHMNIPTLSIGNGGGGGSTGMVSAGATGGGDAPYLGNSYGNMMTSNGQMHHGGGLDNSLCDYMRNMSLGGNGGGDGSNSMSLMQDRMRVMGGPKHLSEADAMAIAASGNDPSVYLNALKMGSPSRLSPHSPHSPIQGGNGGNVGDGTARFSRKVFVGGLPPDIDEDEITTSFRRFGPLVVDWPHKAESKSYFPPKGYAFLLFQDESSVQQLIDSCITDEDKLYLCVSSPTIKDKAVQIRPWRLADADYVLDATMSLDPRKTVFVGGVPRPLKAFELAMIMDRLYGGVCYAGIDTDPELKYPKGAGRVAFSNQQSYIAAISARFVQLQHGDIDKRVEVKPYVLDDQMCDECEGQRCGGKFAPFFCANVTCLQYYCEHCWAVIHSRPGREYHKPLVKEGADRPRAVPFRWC
Data set [5] has as its system Orb2A PLD. The data set is described as follows: TEM imaging of Orb2A PLD oligomers and fibers. To be noted: protein 10 μM, peptide 50 μM, 7 days at 37° C.
Protocol: as §1
The test system of another data set is polyQ tracks. The following applies: administered orally; cited from earlier work.
The target in the next data set is T1, Sup35 (Saccharomyces cerevisiae, UniProt P05453).
T1 sequence (P05453 1-253 limits assumed): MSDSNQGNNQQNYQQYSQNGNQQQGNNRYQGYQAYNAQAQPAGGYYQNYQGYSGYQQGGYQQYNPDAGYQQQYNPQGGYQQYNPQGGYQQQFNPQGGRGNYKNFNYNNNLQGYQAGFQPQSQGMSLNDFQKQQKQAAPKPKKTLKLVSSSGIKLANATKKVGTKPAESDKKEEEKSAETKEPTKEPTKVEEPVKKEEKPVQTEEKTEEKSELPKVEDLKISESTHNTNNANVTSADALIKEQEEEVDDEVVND
The following applies: cited from earlier work.

The target in another data set is -synuclein (Homo sapiens, UniProt P37840). The following applies: cited from earlier work.
The subject of data set [6] is monomeric expanded polyQ proteins. To be noted: cited from earlier work.
The target of a further data set is Tau (Homo sapiens, UniProt P10636). The following applies: personal communication; cited from earlier work.
Chain of Tau (P10636 whole entry): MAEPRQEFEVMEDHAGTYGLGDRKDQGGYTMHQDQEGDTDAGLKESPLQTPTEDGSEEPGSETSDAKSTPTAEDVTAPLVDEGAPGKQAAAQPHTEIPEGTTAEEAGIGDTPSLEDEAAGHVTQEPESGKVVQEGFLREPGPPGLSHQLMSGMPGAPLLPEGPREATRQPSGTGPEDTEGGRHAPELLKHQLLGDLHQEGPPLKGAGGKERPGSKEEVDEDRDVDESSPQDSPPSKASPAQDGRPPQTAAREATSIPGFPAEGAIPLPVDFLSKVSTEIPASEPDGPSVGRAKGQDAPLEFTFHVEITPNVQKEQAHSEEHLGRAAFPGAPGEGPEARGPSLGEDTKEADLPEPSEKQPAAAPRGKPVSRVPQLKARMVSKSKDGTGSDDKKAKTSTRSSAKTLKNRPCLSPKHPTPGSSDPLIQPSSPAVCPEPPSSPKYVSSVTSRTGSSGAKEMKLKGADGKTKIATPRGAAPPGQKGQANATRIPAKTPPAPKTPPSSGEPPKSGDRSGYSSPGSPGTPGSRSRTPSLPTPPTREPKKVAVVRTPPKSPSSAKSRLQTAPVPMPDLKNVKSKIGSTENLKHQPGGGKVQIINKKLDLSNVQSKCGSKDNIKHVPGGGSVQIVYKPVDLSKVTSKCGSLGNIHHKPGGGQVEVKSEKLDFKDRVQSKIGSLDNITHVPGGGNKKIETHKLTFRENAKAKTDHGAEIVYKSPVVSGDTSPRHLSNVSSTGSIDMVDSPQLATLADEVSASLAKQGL

Residues, ends and D or L forms follow the SMILES beside them.

Protocol for full-length Orb2A: Proteins were equilibrated in PBS, pH 7.4, by gel-filtration chromatography and the equilibration buffer was used to prepare the peptide solutions. Protein/peptide binding was tested by successive injections of protein sample (10 to 25 μl each) into the reaction cell loaded with peptide at high final [peptide]/[protein] molar ratios. The apparent heat of reaction for each injection was obtained by integration of the peak area. The heats developed on protein or peptide dilutions were determined in separate runs loading the sample cell or the injection syringe with buffer, respectively, in the conditions used for the binding experiments. […] Protein (Orb2A, 185 μM) and ligand (QBP1 and SCR, 300 μM and 51 μM, respectively) concentrations in the loading solutions were measured spectrophotometrically using their respective extinction coefficients. • Drosophila strains.

As for `CC[C@H](C)[C@H](NC(=O)CNC(=O)[C@@H]1CCCN1C(=O)[C@H](Cc1c[nH]c2ccccc12)NC(=O)[C@H](Cc1c[nH]c2ccccc12)NC(=O)[C@H](CCCCN)NC(=O)[C@H](Cc1c[nH]c2ccccc12)NC(C)=O)C(=O)N[C@@H](Cc1ccccc1)C(N)=O` [QBP1-f, Ac-WKWWPGIF-NH2] (Ac-WKWWPGIF-NH2), the “Orb2A PLD amyloidogenesis monitored by CR binding” value in the data set with Orb2A PLD [1] is given as “inhibited Orb2A PLD amyloidogenesis”. Also, in the data set on Orb2A PLD [2], the “putative M events (SMFS incomplete recordings)” value is “fewer putative M events” and the “structures formed per molecule (SMFS force peaks)” value was “fewer structures formed per molecule”. Besides, the “formation of M conformers (SMFS)” value in the data set with Orb2A PLD [2] (overnight 4° C., reduced from 37.7%) is given as 16.1%. In the data set on Drosophila melanogaster, the “short-term memory (courtship suppression immediately after training)” value is on record as “does not interfere with short-term memory”, the “long-term memory (courtship suppression after 24 hours)” value was “loss of long-term memory”, the “effect on fly development” value is “did not affect fly development” and the normal courtship behaviour entry was “slightly diminished”. Further, the “oligomerization and loss of far-UV CD signal due to aggregation and precipitation” value in the data set on Orb2A PLD [3] was “suppressed the oligomerization processes and decreased the loss of signal due to aggregation and precipitation”. Moreover, the “Orb2A PLD amyloidogenesis monitored by turbidimetry” value in the data set with Orb2A PLD [4] was “inhibited Orb2A PLD amyloidogenesis”. Also, the “interaction with Orb2A by ITC” value on full-length Orb2A is listed as “physically interacts with Orb2A”. In the data set with Orb2A PLD [5], the “formation of oligomers and fibers by TEM” value is “dramatic reduction in the formation of both oligomers and fibers”.

As to `CC[C@H](C)[C@H](NC(=O)[C@@H]1CCCN1C(=O)[C@H](Cc1c[nH]c2ccccc12)NC(C)=O)C(=O)N[C@@H](Cc1c[nH]c2ccccc12)C(=O)N[C@@H](CCCCN)C(=O)NCC(=O)N[C@@H](Cc1c[nH]c2ccccc12)C(=O)N[C@@H](Cc1ccccc1)C(N)=O` [SCR, Ac-WPIWKGWF-NH2] (Ac-WPIWKGWF-NH2), in the data set with Orb2A PLD [2] (overnight 4° C.), the “effect on NM/M conformational transition (SMFS)” value was “no effect”. In the data set with Drosophila melanogaster, the “short-term memory (courtship suppression immediately after training)” value is “does not interfere with short-term memory”, the “long-term memory (courtship suppression after 24 hours)” value is “no effect”, the “effect on fly development” value is “did not affect fly development” and the normal courtship behaviour entry is on record as “slightly diminished”. Also, the “oligomerization and loss of far-UV CD signal due to aggregation and precipitation” value in the data set on Orb2A PLD [3] is given as “not”. The “interaction with Orb2A by ITC” value on full-length Orb2A is “marginal interaction”. In the data set with Orb2A PLD [5], the “formation of oligomers and fibers by TEM” value is on record as “not”.

“QBP1: polyglutamine binding peptide 1, hydrophobic peptide, known inhibitor of amyloids including HttQ expansions (SNWKWWPGIFD; QBP1)”: in the data set with polyQ tracks, the “amyloidogenesis of polyQ tracks in Drosophila” value is reported as “can inhibit amyloidogenesis”. Also, the “amyloidogenesis (conformational polymorphism, oligomerization, fibrillogenesis)” value in the data set with Sup35 and with -synuclein was “inhibits amyloidogenesis” each time. For the same compound, the “β-conformational transition, oligomerization, fibrillogenesis, cytotoxicity and neurodegeneration of expanded polyQ proteins” value in data set [6] was “suppressing oligomerization, fibrillogenesis as well as associated cytotoxicity and neurodegeneration”. In addition, the amyloidogenesis entry in the data set with Tau is “not”.
